Experimental data: PMC5584945, “Evaluation of robenidine analog NCL195 as a novel broad-spectrum antibacterial agent” (PLoS ONE, 2017)
≈ marks a conversion by molar mass, not a printed value.

Tests used:
human red blood cells = test: Haemolysis assay; type: cell-based; conditions: 1 h, 37°C; highest concentration used 128 μg/ml
Method: This was performed using fresh donor human red blood cells (RBCs), essentially as described previously. Fresh RBCs were washed in PBS three times at 500 × g for 5 min, and then resuspended 1% (w/v) in PBS. […] Thereafter, 198 μL of the 1% RBC solution was added into each well, and the mixture incubated for 1 h at 37°C, with shaking at 100 rpm. Quadruplicate wells containing either 1% Triton X100, or PBS only, served as controls. After incubation, the trays were centrifuged at 1,000 × g for 3 min and 100 μl of supernatant from each well transferred into a new 96-well tray. Absorbance was measured at A450 nm on a Multiskan Ascent 354 Spectrophotometer (Labsystems) and plotted against each dilution. Haemolytic titer was determined as the reciprocal of the dilution at which 50% of erythrocytes were lysed at A450 nm. The experiment was performed twice.

MDBK = test: In vitro cytotoxicity, WST-1; type: cell-based, bovine; conditions: Bos taurus, 24 h exposure, read-out: IC50 values ± SEM
Excerpt: (§1) In order to ensure minimal off target mammalian cell cytotoxicity, we assayed NCL812, NCL195 and NCL219 for in vitro cytotoxicity using a panel of adherent mammalian cell lines: Caco-2 (human colorectal adenocarcinoma cell line), HEL 299 (non-cancerous human lung fibroblast cell line), Hep G2 (human hepatocellular carcinoma cell line), MDBK (normal bovine kidney cell line) and MCF7 (human mammary gland adenocarcinoma cell line). Cell lines were maintained in Dulbecco’s Modified Eagle’s Medium (DMEM; […] After 24 h incubation, media was removed, washed once with medium without antibiotics and fresh medium supplemented with 10% (vol/vol) FBS was added. […] Following exposure for 24 h, WST-1 reagent was added to each well at a final concentration of 10%. […] The IC50 value for each compound against each cell line was determined via non-linear regression (three parameters) using GraphPad Prism v6 software. The robustness of assays was confirmed with selected cell lines (Hep G2 and MDBK) seeded onto a 96–well Microwell Nunclon Delta Surface plate (Thermo Scientific Nunc; Cat No: 136101) at 5 × 10^4 cells per well.

S. pneumoniae D39 [1] = test: Minimum bactericidal concentration (MBC); type: cell-based; conditions: Streptococcus pneumoniae, 99.9% colony count reduction, read-out: MBC
S. aureus ATCC49775 = test: Membrane potential, DiOC2(3) fluorescence; type: cell-based, Staphylococcus aureus; conditions: 16 μg/ml, pre-incubated 5 min; versus untreated and ampicillin
Method: (§2) To further examine the mechanism underlying the perturbation of the cell membrane of S. pneumoniae or S. aureus by the NCL compounds, the membrane potential of the cells was measured by fluorescence spectrometry using (DiOC2(3), essentially as described previously. Briefly, […] cells from an overnight HBA plate were grown in Todd-Hewitt broth supplemented with 1% yeast extract (THY) at 37°C, 5% CO2 until A600 nm = 0.5. […] The cuvette was then placed in a LS 55 Fluorescence Spectrometer (PerkinElmer) set at Ex. 488 nm/Em. 620 nm, with excitation and emission slit widths at 5 nm and 7 nm, respectively). […] All assays were performed at least twice.

[2] = tested on: vancomycin-resistant enterococci (VRE); test: MIC, broth micro-dilution (CLSI); type: cell-based, enterococci (porcine isolates); conditions: for MIC50 / MIC90 / MIC: Enterococcus, VRE
[3] = Kinetic solubility by nephelometry; type: physicochemical; conditions: kinetic from dmso stock
S. aureus Xen29 = test: Minimum bactericidal concentration (MBC); type: cell-based; conditions: Staphylococcus aureus, 99.9% colony count reduction
Method: The tray was covered with Breathe-Easy sealing membrane (Z380059, Sigma-Aldrich) and incubated for 16 h overnight at 35°C in an EnSpire Multimode Plate Reader 2300 (PerkinElmer), with data collected every 20 min and 2 sec agitation at 60 rpm between data (A600 nm) acquisitions. The experiment was repeated using the luminescent D39LUX strain on a Cytation 5 Cell Imaging Multi-Mode Reader (BioTek) using IsoplateTM-96 F tray PerkinElmer, 6005020). Kill kinetic assays on S. aureus Xen29 was carried out essentially as described for MIC determination on Cytation 5 Cell Imaging Multi-Mode Reader.
In order to determine the MBC of each compound against S. pneumoniae D39 or S. aureus Xen29, 10 μl aliquots from each duplicate well from the MIC assays (starting from the MIC for each compound) was inoculated onto a HBA plate and incubated at 37°C (+ 5% CO2 for S. pneumoniae D39). Plates were examined at 24 and 48 h and the MBC was recorded as the lowest concentration of each test compound at which a 99.9% colony count reduction was observed on the plate.

HEL 299 = test: In vitro cytotoxicity, WST-1; type: cell-based; conditions: Homo sapiens, 24 h exposure, read-out: IC50 values ± SEM
Excerpt: as §1

MCF7 = test: In vitro cytotoxicity, WST-1; type: cell-based; conditions: Homo sapiens, 24 h exposure, read-out: IC50 values ± SEM
Excerpt: as §1

Caco-2 = test: In vitro cytotoxicity, WST-1; type: cell-based; conditions: Homo sapiens, 24 h exposure, read-out: IC50 values ± SEM
Excerpt: as §1

Hep G2 = test: In vitro cytotoxicity, WST-1; type: cell-based; conditions: Homo sapiens, HepG2; 24 h exposure; read-out: IC50 values ± SEM
Excerpt: as §1

S. pneumoniae D39 [4] = test: Membrane potential, DiOC2(3) fluorescence; type: cell-based, Streptococcus pneumoniae; conditions: 16 μg/ml, pre-incubated 5 min; versus untreated and ampicillin
Method: as §2

[5] = LogD by gradient HPLC chromatographic method; type: physicochemical; conditions: pH 7.4
[6] = S3 Table isolates, absence of FBS

Compound: C/C(=N\NC(=N)N/N=C(\C)c1ccc(C(C)(C)C)cc1)c1ccc(C(C)(C)C)cc1 [NCL219, (E)-N'-((E)-1-(4-(tert-butyl)phenyl)ethylidene)-2-(1-(4-(tert-butyl)phenyl)ethylidene)hydrazine-1-carboximidhydrazide]
- 50% haemolysis titre (HC50) (human red blood cells): 6 µg/mL
- IC50 (MDBK): 16 ± 0.2 µg/mL (≈ 39.4 µM)
- MBC (S. pneumoniae D39 [1]): 4 µg/mL (≈ 9.86 µM)
- Effect on generated membrane potential (S. aureus ATCC49775): large reduction in the magnitude of the generated membrane potential
- Fold increase of MIC range in the presence of 10% FBS ([2]; 10% FBS versus no FBS): 8 fold
- MIC range ([2]; 20 isolates): 1 to 2 µg/mL
- MIC50 ([2]; S3 Table isolates, 10% FBS): 8 µg/mL (≈ 19.7 µM)
- MIC90 ([2]; S3 Table isolates, 10% FBS): 16 µg/mL (≈ 39.4 µM)
- MIC50 [2, 6]: 2 µg/mL (≈ 4.93 µM)
- MIC90 [2, 6]: 2 µg/mL (≈ 4.93 µM)
- MIC ([2]; VRE 1 (49 FR), 10% FBS): 16 µg/mL (≈ 39.4 µM)
- MIC ([2]; VRE 1 (49 FR), absence of FBS): 2 µg/mL (≈ 4.93 µM)
- MIC ([2]; VRE 2 (53 FR), 10% FBS): 8 µg/mL (≈ 19.7 µM)
- MIC ([2]; VRE 2 (53 FR), absence of FBS): 2 µg/mL (≈ 4.93 µM)
- MIC ([2]; VRE 3 (55 FR), 10% FBS): 8 µg/mL (≈ 19.7 µM)
- MIC ([2]; VRE 3 (55 FR), absence of FBS): 2 µg/mL (≈ 4.93 µM)
- MIC ([2]; VRE 4 (57 FR), 10% FBS): 8 µg/mL (≈ 19.7 µM)
- MIC ([2]; VRE 4 (57 FR), absence of FBS): 2 µg/mL (≈ 4.93 µM)
- MIC ([2]; VRE5 (58 FR), 10% FBS): 8 µg/mL (≈ 19.7 µM)
- MIC ([2]; VRE5 (58 FR), absence of FBS): 2 µg/mL (≈ 4.93 µM)
- MIC ([2]; VRE 6 (59 FR), 10% FBS): 8 µg/mL (≈ 19.7 µM)
- MIC ([2]; VRE 6 (59 FR), absence of FBS): 2 µg/mL (≈ 4.93 µM)
- MIC ([2]; VRE 7 (270 G), 10% FBS): 16 µg/mL (≈ 39.4 µM)
- MIC ([2]; VRE 7 (270 G), absence of FBS): 2 µg/mL (≈ 4.93 µM)
- MIC ([2]; VRE 8 (277 G), 10% FBS): 8 µg/mL (≈ 19.7 µM)
- MIC ([2]; VRE 8 (277 G), absence of FBS): 1 µg/mL (≈ 2.47 µM)
- MIC ([2]; VRE 9 (61 FR), 10% FBS): 8 µg/mL (≈ 19.7 µM)
- MIC ([2]; VRE 9 (61 FR), absence of FBS): 1 µg/mL (≈ 2.47 µM)
- MIC ([2]; VRE 10 (62 FR), 10% FBS): 16 µg/mL (≈ 39.4 µM)
- MIC ([2]; VRE 10 (62 FR), absence of FBS): 1 µg/mL (≈ 2.47 µM)
- MIC ([2]; VRE 11 (284 G), 10% FBS): 8 µg/mL (≈ 19.7 µM)
- MIC ([2]; VRE 11 (284 G), absence of FBS): 2 µg/mL (≈ 4.93 µM)
- MIC ([2]; VRE 12 (290 G), 10% FBS): 8 µg/mL (≈ 19.7 µM)
- MIC ([2]; VRE 12 (290 G), absence of FBS): 2 µg/mL (≈ 4.93 µM)
- MIC ([2]; VRE 13 (251 G), 10% FBS): 8 µg/mL (≈ 19.7 µM)
- MIC ([2]; VRE 13 (251 G), absence of FBS): 2 µg/mL (≈ 4.93 µM)
- MIC ([2]; VRE 14 (252 G), 10% FBS): 8 µg/mL (≈ 19.7 µM)
- MIC ([2]; VRE 14 (252 G), absence of FBS): 2 µg/mL (≈ 4.93 µM)
- MIC ([2]; VRE 15 (63 FR), 10% FBS): 8 µg/mL (≈ 19.7 µM)
- MIC ([2]; VRE 15 (63 FR), absence of FBS): 2 µg/mL (≈ 4.93 µM)
- MIC ([2]; VRE 16 (60 FR), 10% FBS): 8 µg/mL (≈ 19.7 µM)
- MIC ([2]; VRE 16 (60 FR), absence of FBS): 2 µg/mL (≈ 4.93 µM)
- MIC ([2]; VRE 17 (45 FR), 10% FBS): 8 µg/mL (≈ 19.7 µM)
- MIC ([2]; VRE 17 (45 FR), absence of FBS): 2 µg/mL (≈ 4.93 µM)
- MIC ([2]; VRE 18 (69 W), 10% FBS): 8 µg/mL (≈ 19.7 µM)
- MIC ([2]; VRE 18 (69 W), absence of FBS): 2 µg/mL (≈ 4.93 µM)
- MIC ([2]; VRE 19 (70 W), 10% FBS): 8 µg/mL (≈ 19.7 µM)
- MIC ([2]; VRE 19 (70 W), absence of FBS): 2 µg/mL (≈ 4.93 µM)
- MIC ([2]; VRE 20 (78 W), 10% FBS): 8 µg/mL (≈ 19.7 µM)
- MIC ([2]; VRE 20 (78 W), absence of FBS): 2 µg/mL (≈ 4.93 µM)
- MIC range ([2]; S3 Table isolates, 10% FBS): 8 to 16 µg/mL
- MIC range [2, 6]: 1 to 2 µg/mL
- solubility ([3]; pH 2.0): 0.78 to 1.6 µg/mL (≈ 1.92 to 3.94 µM)
- solubility ([3]; pH 6.5): 0.78 to 1.6 µg/mL (≈ 1.92 to 3.94 µM)
- MBC (S. aureus Xen29): 16 µg/mL (≈ 39.4 µM)
- IC50 (HEL 299): 21.2 ± 0.2 µg/mL (≈ 52.3 µM)
- IC50 (MCF7): > 128 µg/mL
- IC50 (Caco-2): 7.5 ± 0.1 µg/mL (≈ 18.5 µM)
- IC50 (Hep G2): 7.1 ± 0.1 µg/mL (≈ 17.5 µM)
- Effect on generated membrane potential (S. pneumoniae D39 [4]): large reduction in the magnitude of the generated membrane potential
- chromatographic logD [5]: > 5.3
